The source of these data is patent US9617256B2 (priority 2007, dated 2017).

One experiment relates to AECO001 (ATCC25922). The experiment can be described thus: MIC broth microdilution, AECO001. It is filed as cell-based, E. coli. The conditions noted are these: Escherichia coli, ATCC25922, read-out: MIC AECO001. The essentials:
(§1)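 Growth inhibition was scored by CLSI broth microdilution using cation-adjusted Mueller-Hinton broth and a final inoculum between 3×10^5 and 7×10^5 CFU/mL, incubated 18-24 hours at 35° C.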

Experiment [1] deals with AECO063 (ATCC25922 bearing an acrAB mutation). The experiment can be described thus: microbe, parasite or virus in culture. It counts as cell-based, E. coli. The conditions noted are these: Escherichia coli, ATCC25922, read-out: MIC AECO063. In short, it runs like this: as §1
A further experiment has as its system APAE001 (ATCC27853). The experiment can be described thus: MIC broth microdilution, APAE001. It counts as cell-based, P. aeruginosa. The conditions noted are these: Pseudomonas aeruginosa, ATCC27853, read-out: MIC APAE001, APAE001 is ATCC27853. In short, it runs like this:
as §1
On the technique in general: In broth dilution the organism is exposed to a series of concentrations in liquid medium.

Experiment [2] concerns APAE006 (strain of P. aeruginosa in which all efflux pumps are inactivated). As to the kind of experiment: microbe, parasite or virus in culture. The conditions noted are these: Pseudomonas aeruginosa, read-out: MIC APAE006, P. aeruginosa, all efflux pumps inactivated. It is filed as cell-based. In short, it runs like this:
as §1

Experiment [3] deals with APAE006 in the presence of 8 micrograms per milliliter of polymyxin B nonapeptide. It is filed as cell-based, P. aeruginosa. The conditions noted are these: in the presence of 8 micrograms per milliliter of polymyxin B nonapeptide. In short, it runs like this: as §1
Experiment [4] has as its system AABA1060 (clinical isolate of Acinetobacter baumannii). The experiment can be described thus: MIC broth microdilution, AABA1060. It counts as cell-based. The conditions noted are these: Acinetobacter baumannii, read-out: MIC AABA1060. In short, it runs like this: as §1
In experiment [5] the test system is ASAU001 (laboratory strain of S. aureus, ATCC29213). The experiment can be described thus: MIC broth microdilution, ASAU001. The conditions noted are these: Staphylococcus aureus, ATCC29213, read-out: MIC ASAU001. It counts as cell-based. In short, it runs like this:
as §1

Another experiment concerns AECO001 HSA AGP. As to the kind of experiment: MIC broth microdilution, AECO001 HSA AGP. It is filed as cell-based, E. coli. The conditions noted are these: Escherichia coli. The procedure:
Bacterial isolates were cultivated from −70° C. frozen stocks by overnight passages at 35° C. in ambient air on Mueller-Hinton agar (Beckton Dickinson, Franklin Lakes, N.J.). Clinical isolates tested were obtained from various geographically diverse hospitals in the US and abroad (Focus Diagnostics, Herndon, Va. and JMI, North Liberty, Iowa). Quality control strains were from the American Type Culture Collection (ATCC; Rockville, Md.). Additional primary panel strains were generated using standard molecular biology techniques.
Minimum Inhibitory Concentrations (MICs) were determined by the broth microdilution method in accordance with the Clinical and Laboratory Standards Institute (CLSI) guidelines. In brief, organism suspensions were adjusted to a 0.5 McFarland standard to yield a final inoculum between 3×10^5 and 7×10^5 colony-forming units (CFU)/mL. Drug dilutions and inocula were made in sterile, cation adjusted Mueller-Hinton Broth (Beckton Dickinson). An inoculum volume of 100 μL was added to wells containing 100 μL of broth with 2-fold serial dilutions of drug. All inoculated microdilution trays were incubated in ambient air at 35° C. for 18-24 hours. […] Performance of the assay was monitored by the use of laboratory quality-control strains and levofloxacin, a compound with a defined MIC spectrum, in accordance with CLSI guidelines.
*AECO001 is ATCC25922, AECO063 is ATCC25922 bearing an acrAB mutation, APAE001 is ATCC27853, APAE006 is a strain of P. aeruginosa in which all efflux pumps are inactivated, APAE006+PMBN indicates MICs with the indicated strain in the presence of 8 micrograms per milliliter of polymyxin B nonapeptide, AABA1060 is a clinical isolate of Acinetobacter baumannii, ASAU001 is a laboratory strain of S. aureus (ATCC29213).

Converted amounts (≈) assume the structure as drawn.

`CNC[C@H](NC(=O)c1ccc(C#C/C=C/c2ccc(CN3CCOCC3)cc2)cc1)C(=O)NO` [Example 99-1]: the MIC in the experiment with AECO001 (ATCC25922) is less than 2 µg/mL; in experiment [1], less than 2 µg/mL; in the experiment with APAE001 (ATCC27853), 2 to 16 µg/mL (≈ 4.32 to 34.6 µM); in experiment [2] it was less than 2 µg/mL; in experiment [4] it was 16 to 64 µg/mL (≈ 34.6 to 138 µM); in experiment [5], 16 to 64 µg/mL (≈ 34.6 to 138 µM). Besides, the MIC against AECO001 HSA AGP is 2 to 16 µg/mL (≈ 4.32 to 34.6 µM). Further, in experiment [3], the “MIC APAE006 + PMBN” value is given as “A (MIC's of 2.0 μg/mL or less = A)”.

`C[C@@H](N)[C@H](NC(=O)c1ccc(C#CC#CC2CCCCC2)cc1)C(=O)NO` [Example 91-4]: the MIC with AECO001 (ATCC25922) is less than 2 µg/mL; in experiment [1] it was less than 2 µg/mL; with APAE001 (ATCC27853), 2 to 16 µg/mL (≈ 5.44 to 43.5 µM); in experiment [2], less than 2 µg/mL; in experiment [4] it was 2 to 16 µg/mL (≈ 5.44 to 43.5 µM); in experiment [5], 2 to 16 µg/mL (≈ 5.44 to 43.5 µM). In the experiment with AECO001 HSA AGP, this compound showed an MIC of 2 to 16 µg/mL (≈ 5.44 to 43.5 µM). In addition, the “MIC APAE006 + PMBN” value in experiment [3] is given as “A (MIC's of 2.0 μg/mL or less = A)”.

On to `Cn1cncc1C#CC#Cc1ccc(C(=O)N[C@H](C(=O)NO)C(C)(C)O)cc1` [Example 88-10], for which the MIC in the experiment with AECO001 (ATCC25922) was less than 2 µg/mL; in experiment [1], less than 2 µg/mL; with APAE001 (ATCC27853), 2 to 16 µg/mL (≈ 5.26 to 42.1 µM); in experiment [2], less than 2 µg/mL; in experiment [4], 2 to 16 µg/mL (≈ 5.26 to 42.1 µM); in experiment [5], 16 to 64 µg/mL (≈ 42.1 to 168 µM). Moreover, in the experiment on AECO001 HSA AGP, the MIC is 2 to 16 µg/mL (≈ 5.26 to 42.1 µM). The “MIC APAE006 + PMBN” value in experiment [3] was “A (MIC's of 2.0 μg/mL or less = A)”.

As to `C[C@@H](O)[C@H](NC(=O)c1ccc(C2CCN(c3ccc(CN4CCOCC4)cc3)CC2)cc1)C(=O)NO` [Example 41-5, N-((1S,2R)-2-Hydroxy-1-hydroxycarbamoyl-propyl)-4-[1-(4-morpholin-4-ylmethyl-phenyl)-piperidin-4-yl]-benzamide], the MIC was greater than 64 µg/mL in the experiment with AECO001 (ATCC25922); 16 to 64 µg/mL (≈ 32.2 to 129 µM) in experiment [1]; 16 to 64 µg/mL (≈ 32.2 to 129 µM) in the experiment with APAE001 (ATCC27853); less than 2 µg/mL in experiment [2]; greater than 64 µg/mL in experiment [4]; greater than 64 µg/mL in experiment [5]. Also, in the experiment on AECO001 HSA AGP, the MIC was greater than 64 µg/mL. Also, the “MIC APAE006 + PMBN” value in experiment [3] is recorded as “A (MIC's of 2.0 μg/mL or less = A)”.

With `C[C@@H](N)[C@H](NC(=O)c1ccc(/C=C/C#Cc2ccc(CNC3CC3)cc2)cc1)C(=O)NO` [Example 113-2], the MIC in the experiment on AECO001 (ATCC25922) was less than 2 µg/mL; in experiment [1], less than 2 µg/mL; in the experiment on APAE001 (ATCC27853), less than 2 µg/mL; in experiment [2] it was less than 2 µg/mL; in experiment [4], 2 to 16 µg/mL (≈ 4.62 to 37 µM); in experiment [5], greater than 64 µg/mL. In addition, in the experiment with AECO001 HSA AGP, the MIC lay within 2 to 16 µg/mL (≈ 4.62 to 37 µM). In addition, the “MIC APAE006 + PMBN” value in experiment [3] is “A (MIC's of 2.0 μg/mL or less = A)”.

As for `C[C@@H](O)[C@H](NC(=O)c1ccc(C#CC#Cc2ccc(CNC3CC3)cc2)cc1)C(=O)NO` [Example 87-2], the MIC is less than 2 µg/mL in the experiment on AECO001 (ATCC25922); less than 2 µg/mL in experiment [1]; less than 2 µg/mL in the experiment with APAE001 (ATCC27853); less than 2 µg/mL in experiment [2]; 16 to 64 µg/mL (≈ 37.1 to 148 µM) in experiment [4]; 16 to 64 µg/mL (≈ 37.1 to 148 µM) in experiment [5]. The MIC with AECO001 HSA AGP is less than 2 µg/mL. Further, the “MIC APAE006 + PMBN” value in experiment [3] is listed as “A (MIC's of 2.0 μg/mL or less = A)”.

For the compound `CC(O)[C@H](NS(=O)(=O)c1ccc(C#Cc2ccc(CN3CCOCC3)cc2)cc1)C(=O)NO` (some centres unmarked) [Example 62-7], the MIC was 16 to 64 µg/mL (≈ 33.8 to 135 µM) with AECO001 (ATCC25922); 2 to 16 µg/mL (≈ 4.22 to 33.8 µM) in experiment [1]; greater than 64 µg/mL in the experiment on APAE001 (ATCC27853); 2 to 16 µg/mL (≈ 4.22 to 33.8 µM) in experiment [2]; 16 to 64 µg/mL (≈ 33.8 to 135 µM) in experiment [4]; greater than 64 µg/mL in experiment [5]. Besides, the MIC in the experiment with AECO001 HSA AGP lay within 16 to 64 µg/mL (≈ 33.8 to 135 µM).

With `C[C@@H](O)[C@H](NC(=O)c1ccc(Sc2ccc(CN3CCOCC3)cc2)cc1)C(=O)NO` [Example 47-5, N-((1S,2R)-2-hydroxy-1-hydroxycarbamoyl-propyl)-4-(4-morpholin-4-ylmethyl-phenylsulfanyl)-benzamide], the MIC was greater than 64 µg/mL with AECO001 (ATCC25922); greater than 64 µg/mL in experiment [1]; greater than 64 µg/mL in the experiment with APAE001 (ATCC27853); 16 to 64 µg/mL (≈ 35.9 to 144 µM) in experiment [2]; greater than 64 µg/mL in experiment [4]; greater than 64 µg/mL in experiment [5]. This compound had an MIC against AECO001 HSA AGP greater than 64 µg/mL.
